# Reference: patent US20070027175A1, “Antineoplastic activities of ellipticine and its derivatives” (priority 2005, published 2007)
# What was measured:
# myeloma cells = assay: Velcade sensitivity of myeloma cells without and with stromal co-culture; type: cell-based, human
# From the text: The bone marrow microenvironment augments myelomagenesis and can protect myeloma cells from destruction when patients undergo systemic and supportive therapies. In vitro, via direct cell-cell adhesion or soluble factors generated by […] interactions, myeloma cells are reportedly well protected from chemotherapeutic agents (Nefedova et al., 2001).
# NCI-60 cancer panel = conditions: average across the cell lines of the concentration at which growth is inhibited 50%; unit in the High Conc. footnote; cited from earlier work
# [1] = tested on: 12 myeloma cell lines (Ark, BW288, CAG, Delta47, DF15, JJN3, kms11, L363, opm2, RPMI8226, U266 and XG1); assay: Comparative study with existing anti-myeloma drugs (CellTiter-Glo); type: cell-based, human; set-up: time to inhibition of cell proliferation: dose or concentration left out as unconfirmed
# From the text: The results obtained from these controls are pooled together in the figure (●). The dose of each compound was set […].
# Comparative study of NSC 338258 with existing anti-myeloma drugs Myeloma cell lines were exposed to NSC 338258 and existing anti myeloma drugs, Adriamycin® (Doxorubicin Hydrochloride) and Etoposide (VP-16-213) in ninety six well culture plates. The concentration of each compound was set […]. […] The cell growth was near zero in the following days (day 4 onwards; FIG. 6). It was also observed that 12 myeloma cell lines (Ark, BW288, CAG, Delta47, DF15, JJN3, kms11, L363, opm2, RPMI8226, U266 and XG1) responded to the same dosage (0.2 μM) of NSC 338258, VP-16-213 and Adriamycin in 5 days.
# [2] = tested on: RPMI8226 myeloma cell line; assay: CellTiter-Glo luminescent cell viability assay, RPMI8226; type: cell-based, human; set-up: unit of the concentration uncertain
# Method: (§1) The dosage of each derivative was set at 2, 0.2 and 0.02 mM. A cell culture medium control and 0.5% DMSO control was maintained in each experiment. The cell viability was tested each day over a period of five days using the CellTiter-Glo luminescent cell viability assay kit from Promega Co.
# Cell Titer-Glo luminescent cell viability assay kit from Promega Co (Madison, Wis.) was used to determine cell growth inhibition by the various compounds tested. The kit determines cell viability by quantifying the amount of ATP present in the cell culture medium. Presence of ATP signals the presence of metabolically active cells (3). The intensity of luminescence was measured by a computerized luminometer (Promega, Co. Madison, Wis.). Each well was read five times within 30 minutes of adding Cell Titer-Glo reagent mixture. […]
# Ark myeloma cell line = assay: CellTiter-Glo luminescent cell viability assay, Ark; type: cell-based, human; set-up: unit of the concentration uncertain
# Method: as §1
# Cell Titer-Glo luminescent cell viability assay kit from Promega Co (Madison, Wis.) was used to determine cell growth inhibition by the various compounds tested. The kit determines cell viability by quantifying the amount of ATP present in the cell culture medium. Presence of ATP signals the presence of metabolically active cells (3). The intensity of luminescence was measured by a computerized luminometer (Promega, Co. Madison, Wis.). Each well was read five times within 30 minutes of adding Cell Titer-Glo reagent mixture.
# Cells were contacted with the antineoplastic agents in ninety six well culture plates. The concentration of each neoplastic agent was maintained a constant. A cell culture medium control and 0.5% DMSO control were maintained in each set of experiments. The cell viability was tested every day using the CellTiter-Glo luminescent cell viability kit from Promega Co. (Madison, Wis.) for a period of five days.
# [3] = tested on: Fetal bone mesenchymal cells; assay: Selectivity: viability of normal fetal bone mesenchymal cells (CellTiter-Glo); type: cell-based, human; conditions: 0.01-1.0 mM; five days
# Method: The cell viability was tested every day for a period of five days. It was observed that these cells were not killed by the concentrations that were otherwise toxic to the myeloma cells.
# Fetal bone mesenchymal cells were contacted with NSC 338258 in ninety six well culture plates. The concentrations of NSC 338258 were set at 0.01, 0.03. 0.1, 0.3 and 1.0 mM (FIG. 7).
smiles,measurement,setting,value
"CC(C)C[C@H](NC(=O)[C@H](Cc1ccccc1)NC(=O)c1cnccn1)B(O)O [Velcade, bortezomib, reference compound]",effective low dose,myeloma cells; absence of stromal cells,4 nM
same,reduction in sensitivity,"myeloma cells; co-culture versus absence of stromal cells, data not shown",more than 100 fold
same,tolerance of myeloma cells to Velcade,"myeloma cells; co-culture with human fetal bone mesenchymal cells, data not shown",up to 500 nM
"Cc1c2ccncc2c(C)c2c1[nH]c1ccc(OCCN(C)C)cc12 [NSC 338258, ellipticine, 9-dimethyl amino-ethoxy-]",Mean GI50,NCI-60 cancer panel,−6.57 log^10 molar
same,time to inhibition of cell proliferation,[1],≤ 24 h
same,response of 12 myeloma cell lines,"[1]; 0.2 μM, in 5 days",responded
same,cell viability (CellTiter-Glo luminescent assay),"[2]; 0.02 (unit uncertain), Day 1","94,826"
same,cell viability (CellTiter-Glo luminescent assay),"[2]; 0.02 (unit uncertain), Day 2","180,382"
same,cell viability (CellTiter-Glo luminescent assay),"[2]; 0.02 (unit uncertain), Day 3","302,609"
same,cell viability (CellTiter-Glo luminescent assay),"[2]; 0.02 (unit uncertain), Day 4","516,569"
same,cell viability (CellTiter-Glo luminescent assay),"[2]; 0.02 (unit uncertain), Day 5","777,427"
same,cell viability (CellTiter-Glo luminescent assay),"[2]; 0.2 (unit uncertain), Day 1","3,790"
same,cell viability (CellTiter-Glo luminescent assay),"[2]; 0.2 (unit uncertain), Day 2","2,320"
same,cell viability (CellTiter-Glo luminescent assay),"[2]; 0.2 (unit uncertain), Day 3","1,254"
same,cell viability (CellTiter-Glo luminescent assay),"[2]; 0.2 (unit uncertain), Day 4","1,026"
same,cell viability (CellTiter-Glo luminescent assay),"[2]; 0.2 (unit uncertain), Day 5",321
same,cell viability (CellTiter-Glo luminescent assay),"[2]; 2 (unit uncertain), Day 1","4,685"
same,cell viability (CellTiter-Glo luminescent assay),"[2]; 2 (unit uncertain), Day 2",923
same,cell viability (CellTiter-Glo luminescent assay),"[2]; 2 (unit uncertain), Day 3",871
same,cell viability (CellTiter-Glo luminescent assay),"[2]; 2 (unit uncertain), Day 4",234
same,cell viability (CellTiter-Glo luminescent assay),"[2]; 2 (unit uncertain), Day 5",104
same,cell viability (CellTiter-Glo luminescent assay),"Ark myeloma cell line; 0.02 (unit uncertain), Day 1","99,050"
same,cell viability (CellTiter-Glo luminescent assay),"Ark myeloma cell line; 0.02 (unit uncertain), Day 2","187,835"
same,cell viability (CellTiter-Glo luminescent assay),"Ark myeloma cell line; 0.02 (unit uncertain), Day 3","297,927"
same,cell viability (CellTiter-Glo luminescent assay),"Ark myeloma cell line; 0.02 (unit uncertain), Day 4","764,382"
same,cell viability (CellTiter-Glo luminescent assay),"Ark myeloma cell line; 0.02 (unit uncertain), Day 5","982,255"
same,cell viability (CellTiter-Glo luminescent assay),"Ark myeloma cell line; 0.2 (unit uncertain), Day 1","1,085"
same,cell viability (CellTiter-Glo luminescent assay),"Ark myeloma cell line; 0.2 (unit uncertain), Day 2",489
same,cell viability (CellTiter-Glo luminescent assay),"Ark myeloma cell line; 0.2 (unit uncertain), Day 3",384
same,cell viability (CellTiter-Glo luminescent assay),"Ark myeloma cell line; 0.2 (unit uncertain), Day 4",530
same,cell viability (CellTiter-Glo luminescent assay),"Ark myeloma cell line; 0.2 (unit uncertain), Day 5",376
same,cell viability (CellTiter-Glo luminescent assay),"Ark myeloma cell line; 2 (unit uncertain), Day 1",523
same,cell viability (CellTiter-Glo luminescent assay),"Ark myeloma cell line; 2 (unit uncertain), Day 2",342
same,cell viability (CellTiter-Glo luminescent assay),"Ark myeloma cell line; 2 (unit uncertain), Day 3",366
same,cell viability (CellTiter-Glo luminescent assay),"Ark myeloma cell line; 2 (unit uncertain), Day 4",478
same,cell viability (CellTiter-Glo luminescent assay),"Ark myeloma cell line; 2 (unit uncertain), Day 5",299
same,killing of fetal bone derived normal mesenchymal cells,[3],not killed
